Values after ≈ are worked out from the molar mass of the structure shown.
What was measured:
fresh venal human blood = settings: for Reduction of the hemolysis in %: lipopeptide 1,600 mg/l in presence of 2.5% SBE-β-CD
[1] = tested on: Staphylococcus aureus ATCC 29213; test: Minimum inhibitory concentration (agar dilution, CLSI); type: cell-based
Method: (§1) The effects of cyclodextrins on the antibiotic activity von Ca2Cl2 friulimicin B were investigated by in vitro experiments about the growth inhibition of Gram-positive bacteria. Herein, the minimum inhibitory concentration for the growth inhibition was determined by cultivation of the bacteria on nutritious agar (agar dilution) according to the CLSI (previously NCCLS) rules (National Committee for Clinical Laboratory Standards. 2003. Methods for dilution antimicrobial susceptibility tests for bacteria that grow aerobically; approved standard—6th ed. Document M7-A6. Clinical and Laboratory Standards Institute, Wayne, Pa., USA). Different molar mixture ratios of the lipopeptide Ca2Cl2 friulimicin B were tested with SBE-β-CD in Ca ions-adjusted Müller-Hinton medium. The Gram-positive strains tested for the cultivation methods were: • Staphylococcus carnosus ATCC 51365 {DSM 20501) • Staphylococcus aureus ATCC 29213 (DSM 2569) • Staphylococcus aureus ATCC 33592 (DSM 11729) • Staphylococcus epidermidis ATCC 12228 (DSM 1798)

[2] = tested on: Staphylococcus aureus ATCC 33592; test: as above; type: cell-based
Method: as §1

[3] = tested on: Staphylococcus carnosus ATCC 51365; test: as above; type: cell-based
Method: as §1

[4] = tested on: Staphylococcus epidermidis ATCC 12228; test: as above; type: cell-based
Method: as §1

Female mice (CFW-1) = test: Acute toxicity in mice after one-time iv administration; type: in vivo
Method: Female mice (CFW-1 (Harlan Winkelmann, Germany)) were administered once (iv) the Ca2Cl2 friulimicin B solutions with and without SBE-β-CD. The mortality rate of the animals within 24 hours was determined.

canine blood = test: Hemolysis test with venal canine blood; type: cell-based; settings: molar ratio SBE-β-CD:friulimicin B 2.5:1
Method: Ca2Cl2 friulimicin B was dissolved in 0.9% NaCl solution with and without addition of SBE-β-CD. In the batch with SBE-β-CD there was a molar ratio (SBE-β-CD:friulimicin B) of 2.5:1. […] Statements of the content of Ca2Cl2 friulimicin B (in mg/l) refer to the final concentrations of the free acid of the friulimicin B in the reaction batch. The statements of the molar ratio refer to the free acids of friulimicin B and SBE-β-CD, respectively.

[5] = tested on: Streptococcus pneumoniae L3TV; test: Intranasal lung infection model in the mouse; type: in vivo; settings: mice, total dose 20 mg/kg subcutaneously 1 and 4 hours after infection; SBE-β-CD:friulimicin B 2.5:1; Mann Whitney Test p=0.0159
Method: Herein, Ca2Cl2 friulimicin B serves as an example molecule for the antibiotics of the class of the lipopeptides and sulfobutylether-β-cyclodextrin (SBE-β-CD) as examples for modified β-cyclodextrins. Shown are the results of a study with an intranasal lung infection model in the mouse.
Female mice (CFW-1 (Harlan Winkelmann, Germany)) were infected intranasally with Streptococcus pneumoniae L3TV (1*10^6 CFU/mouse). 1 and 4 hours after the infection, the animals were subcutaneously administered a total dose of 20 mg Ca2Cl2 friulimicin B/kg with and without SBE-BCD (5%). 24-hours after the infection, a determination of the number of germs in the lung was performed by plating-out of a tissue disintegration on agar plates in a manner the person skilled in the art is familiar with.

E. faecalis ATCC 29212 = test: Minimum inhibitory concentration in presence of HSA; type: cell-based, Enterococcus faecalis
[6] = literature (Oleson et al. 2000); cited from earlier work
[7] = literature; cited from earlier work
[8] = molar ratio Friulimicin:SBE-β-CD 1:0
[9] = molar ratio Friulimicin:SBE-β-CD 1:2.5
[10] = molar ratio Friulimicin:SBE-β-CD 1:4

Compound: CCC(C)CCCCCC=CCC(=O)NC(CC(=O)O)C(=O)NC1C(=O)N2CCCCC2C(=O)NC(C(C)C(=O)O)C(=O)NC(CC(=O)O)C(=O)NCC(=O)NC(CC(=O)O)C(=O)NCC(=O)NC(C(C)N)C(=O)NC(C(C)C)C(=O)N2CCCC2C(=O)NC1C (stereo not drawn) [Amphomycin, reference compound]
- Reduction of the hemolysis in % (fresh venal human blood): 99.6%

Compound: CCCCCCCCCCCCCCCCCC(=O)NC(CC(N)=O)C(=O)NC1C(=O)N2CCCCC2C(=O)NC(C(C)C(=O)O)C(=O)NC(CC(=O)O)C(=O)NCC(=O)NC(CC(=O)O)C(=O)NCC(=O)NC(C(C)N)C(=O)NC(C(C)C)C(=O)N2CCCC2C(=O)NC1C (stereo not drawn) [CBS000203]
- Reduction of the hemolysis in % (fresh venal human blood): 41.3%

Compound: CCCCC/C=C\C/C=C\C/C=C\CCCCC(=O)NC(CC(N)=O)C(=O)NC1C(=O)N2CCCCC2C(=O)NC(C(C)C(=O)O)C(=O)NC(CC(=O)O)C(=O)NCC(=O)NC(CC(=O)O)C(=O)NCC(=O)NC(C(C)N)C(=O)NC(C(C)C)C(=O)N2CCCC2C(=O)NC1C (stereo not drawn) [CBS000204]
- Reduction of the hemolysis in % (fresh venal human blood): 87.0%

Compound: CC(C)C1NC(=O)C(C(C)N)NC(=O)CNC(=O)C(CC(=O)O)NC(=O)CNC(=O)C(CC(=O)O)NC(=O)C(C(C)C(=O)O)NC(=O)C2CCCCN2C(=O)C(NC(=O)C(CC(N)=O)NC(=O)c2ccc(CCc3ccc(CCc4ccccc4)cc3)cc2)C(C)NC(=O)C2CCCN2C1=O (stereo not drawn) [CBS000217]
- Reduction of the hemolysis in % (fresh venal human blood): 99.5%

Compound: CC(C)CCCCCCC/C=C\CC(=O)N[C@@H](CC(N)=O)C(=O)N[C@@H]1C(=O)N2CCCC[C@@H]2C(=O)N[C@@H]([C@H](C)C(=O)O)C(=O)N[C@@H](CC(=O)O)C(=O)NCC(=O)N[C@@H](CC(=O)O)C(=O)NCC(=O)N[C@H]([C@H](C)N)C(=O)N[C@@H](C(C)C)C(=O)N2CCC[C@H]2C(=O)N[C@@H]1C [Ca2Cl2 friulimicin B, friulimicin B]
- Antibiotic activity (MIC) [1, 8]: 0.5 µg/mL
- Antibiotic activity (MIC) [1, 9]: 0.5 µg/mL
- Antibiotic activity (MIC) [1, 10]: 0.5 µg/mL
- Antibiotic activity (MIC) [2, 8]: 1 µg/mL
- Antibiotic activity (MIC) [2, 9]: 1 µg/mL
- Antibiotic activity (MIC) [2, 10]: 1 µg/mL
- Antibiotic activity (MIC) [3, 8]: 0.5 µg/mL
- Antibiotic activity (MIC) [3, 9]: 0.5 µg/mL
- Antibiotic activity (MIC) [3, 10]: 0.5 µg/mL
- Antibiotic activity (MIC) [4, 8]: 0.5 µg/mL
- Antibiotic activity (MIC) [4, 9]: 0.5 µg/mL
- Antibiotic activity (MIC) [4, 10]: 0.5 µg/mL
- Mortality rate within 24 hours (Female mice (CFW-1); 300 mg/kg iv once, with addition of SBE-β-CD (molar ratio 2.5:1)): 0% (0/3)
- Mortality rate within 24 hours (Female mice (CFW-1); 300 mg/kg iv once, without addition of SBE-β-CD): 0% (0/3)
- Mortality rate within 24 hours (Female mice (CFW-1); 350 mg/kg iv once, without addition of SBE-β-CD): 66% (2/3)
- Mortality rate within 24 hours (Female mice (CFW-1); 400 mg/kg iv once, with addition of SBE-β-CD (molar ratio 2.5:1)): 0% (0/3)
- Mortality rate within 24 hours (Female mice (CFW-1); 400 mg/kg iv once, without addition of SBE-β-CD): 100% (3/3)
- Reduction of the hemolysis by the addition of SBE-β-CD (canine blood; friulimicin B 800 mg/l): 55%
- Reduction of the hemolysis by the addition of SBE-β-CD (canine blood; friulimicin B 5,000 mg/l): 100%
- Antibiotic effect (number of germs in the lung 24 hours after infection), with vs without SBE-β-CD [5]: increases the antibiotic effect
- Effect of HP-β-CD on the induced hemolysis (fresh venal human blood): suppress

Compound: CC(C)CCCCCCC/C=C\CC(=O)N[C@@H](CC(N)=O)C(=O)N[C@@H]1C(=O)N2CCCC[C@@H]2C(=O)N[C@@H]([C@H](C)C(=O)O)C(=O)N[C@@H](CC(=O)O)C(=O)NCC(=O)N[C@@H](CC(=O)O)C(=O)NCC(=O)N[C@H]([C@H](C)N)C(=O)N[C@@H](C(C)C)C(=O)N2CCC[C@H]2C(=O)N[C@@H]1C [Na2 friulimicin B, friulimicin B]
- MIC value ([1]; medium addition 0% HSA): 2 µg/mL (≈ 1.53 µM)
- MIC value ([1]; medium addition 4% HSA): 8 µg/mL (≈ 6.14 µM)
- MIC value (E. faecalis ATCC 29212; medium addition 0% HSA): 4 µg/mL
- MIC value (E. faecalis ATCC 29212; medium addition 4% HSA): >64 µg/mL

Compound: CCCCCCCCCC(=O)N[C@@H](Cc1c[nH]c2ccccc12)C(=O)N[C@H](CC(N)=O)C(=O)N[C@@H](CC(=O)O)C(=O)N[C@@H]1C(=O)NCC(=O)N[C@@H](CCCN)C(=O)N[C@@H](CC(=O)O)C(=O)N[C@H](C)C(=O)N[C@@H](CC(=O)O)C(=O)NCC(=O)N[C@H](CO)C(=O)N[C@@H]([C@H](C)CC(=O)O)C(=O)N[C@@H](CC(=O)c2ccccc2N)C(=O)O[C@@H]1C [daptomycin]
- Toxicity on the skeletal muscle [6]: damages the skeletal muscle

Compound: iturin A
- Hemolytic action [7]: act in a hemolytic manner

Compound: lichenysin
- Hemolytic action [7]: act in a hemolytic manner

Compound: surfactin A
- Hemolytic action [7]: act in a hemolytic manner
